Assay results taken from ChEMBL document CHEMBL6109139, “Rational Design of the First Dual Agonist at Trace Amine-Associated Receptor 1 and 5-HT2C Receptors Based on Binding Pocket Similarity for the Treatment of Schizophrenia and Alzheimer's Disease-Related Psychosis” (J Med Chem, 2025).

Experiments:
[1] = target: Muscarinic acetylcholine receptor M3 (Homo sapiens) (UniProt P20309); experiment: Binding affinity to M3 receptor (unknown origin) at 10 uM by radioligand binding assay relative to control
Chain of Muscarinic acetylcholine receptor M3 (Homo sapiens) (P20309 whole entry, looked up): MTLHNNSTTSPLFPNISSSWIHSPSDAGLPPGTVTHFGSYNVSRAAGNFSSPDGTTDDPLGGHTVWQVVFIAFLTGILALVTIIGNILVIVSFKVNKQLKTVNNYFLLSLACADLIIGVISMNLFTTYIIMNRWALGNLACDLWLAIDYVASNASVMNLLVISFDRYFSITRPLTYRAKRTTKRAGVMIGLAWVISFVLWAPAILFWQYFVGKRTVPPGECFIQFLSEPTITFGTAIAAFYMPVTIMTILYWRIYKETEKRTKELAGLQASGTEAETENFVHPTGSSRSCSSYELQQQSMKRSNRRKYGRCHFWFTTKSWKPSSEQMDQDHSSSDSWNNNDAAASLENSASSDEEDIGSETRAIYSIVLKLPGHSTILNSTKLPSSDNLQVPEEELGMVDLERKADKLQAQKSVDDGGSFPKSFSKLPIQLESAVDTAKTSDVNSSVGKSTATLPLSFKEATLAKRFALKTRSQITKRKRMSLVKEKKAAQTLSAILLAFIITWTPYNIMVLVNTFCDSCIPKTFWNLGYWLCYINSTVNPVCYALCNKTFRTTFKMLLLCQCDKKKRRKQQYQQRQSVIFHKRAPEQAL

[2] = target: 5-hydroxytryptamine receptor 2C (Rattus norvegicus, UniProt P08909); experiment: Agonist activity at rat 5-HT2CR; assay type: functional
Chain of 5-hydroxytryptamine receptor 2C (P08909 whole entry): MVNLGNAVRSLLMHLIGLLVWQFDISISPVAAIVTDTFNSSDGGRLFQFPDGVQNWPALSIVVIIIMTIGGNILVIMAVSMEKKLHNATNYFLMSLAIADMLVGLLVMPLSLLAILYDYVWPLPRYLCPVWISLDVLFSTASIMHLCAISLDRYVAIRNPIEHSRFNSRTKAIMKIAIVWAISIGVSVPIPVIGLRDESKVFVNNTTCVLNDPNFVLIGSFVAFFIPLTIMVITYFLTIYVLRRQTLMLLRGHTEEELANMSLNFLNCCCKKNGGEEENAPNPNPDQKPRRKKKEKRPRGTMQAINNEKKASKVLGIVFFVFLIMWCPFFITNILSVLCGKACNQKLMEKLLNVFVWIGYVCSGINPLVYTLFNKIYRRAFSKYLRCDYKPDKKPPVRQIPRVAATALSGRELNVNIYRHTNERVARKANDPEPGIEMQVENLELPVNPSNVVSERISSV

[3] = Toxicity in male Beagle dog assessed as minimal decrease activity at 2.5 mg/kg, IG administered once daily for 4 weeks and measured after 4 weeks; assay type: organism-based, Canis lupus familiaris; conditions: in vivo, po, 1344 h, time 8 weeks
[4] = Metabolic stability in mouse liver microsomes assessed as intrinsic clearance at 1 uM incubated for 60 mins by LC-MS/MS analysis; assay type: ADME, Microsome; conditions: read-out: CLH
[5] = Ratio of drug concentration in male Sprague-Dawley rat brain to plasma at 5 mg/kg, IG measured after 6 hrs by LC-MS/MS analysis; assay type: ADME, organism-based; conditions: brain and plasma, po, read-out: BPR
[6] = Inhibition of CYP2D6 in human liver microsomes in presence of NADPH by LC-MS/MS analysis; assay type: ADME, Microsome
[7] = target: D(1A) dopamine receptor (Homo sapiens) (UniProt P21728); experiment: Binding affinity to D1 receptor (unknown origin) at 10 uM by radioligand binding assay relative to control
[8] = target: Muscarinic acetylcholine receptor M1 (Homo sapiens) (UniProt P11229); experiment: Binding affinity to M1 receptor (unknown origin) at 10 uM by radioligand binding assay relative to control
Chain of Muscarinic acetylcholine receptor M1 (Homo sapiens) (P11229 whole entry): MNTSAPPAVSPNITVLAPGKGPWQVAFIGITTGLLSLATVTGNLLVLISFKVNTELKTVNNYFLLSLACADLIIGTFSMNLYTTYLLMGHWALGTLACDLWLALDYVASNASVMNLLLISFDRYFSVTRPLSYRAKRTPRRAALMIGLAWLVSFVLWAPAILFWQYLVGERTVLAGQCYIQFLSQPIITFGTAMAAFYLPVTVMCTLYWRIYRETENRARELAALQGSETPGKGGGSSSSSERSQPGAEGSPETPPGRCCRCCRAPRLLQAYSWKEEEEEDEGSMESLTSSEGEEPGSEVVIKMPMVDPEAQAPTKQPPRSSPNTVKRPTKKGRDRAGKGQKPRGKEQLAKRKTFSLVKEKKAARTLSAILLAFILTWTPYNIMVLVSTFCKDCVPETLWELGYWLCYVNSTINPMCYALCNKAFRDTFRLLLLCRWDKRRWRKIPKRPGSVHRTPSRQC

[9] = Toxicity in female Sprague-Dawley rat assessed as change in bone marrow smears at 2.5 to 7.5 mg/kg, po administered once daily for 4 weeks and measured after 4 weeks; assay type: organism-based; conditions: in vivo, 1344 h, dose 2.5-7.5 mg/kg, time 8 weeks
Cytochrome P450 2C9 = Cytochrome P450 2C9 (Homo sapiens, UniProt P11712); experiment: Inhibition of CYP2C9 in human liver microsomes in presence of NADPH by LC-MS/MS analysis; assay type: ADME, Microsome
Chain of Cytochrome P450 2C9 (P11712 whole entry): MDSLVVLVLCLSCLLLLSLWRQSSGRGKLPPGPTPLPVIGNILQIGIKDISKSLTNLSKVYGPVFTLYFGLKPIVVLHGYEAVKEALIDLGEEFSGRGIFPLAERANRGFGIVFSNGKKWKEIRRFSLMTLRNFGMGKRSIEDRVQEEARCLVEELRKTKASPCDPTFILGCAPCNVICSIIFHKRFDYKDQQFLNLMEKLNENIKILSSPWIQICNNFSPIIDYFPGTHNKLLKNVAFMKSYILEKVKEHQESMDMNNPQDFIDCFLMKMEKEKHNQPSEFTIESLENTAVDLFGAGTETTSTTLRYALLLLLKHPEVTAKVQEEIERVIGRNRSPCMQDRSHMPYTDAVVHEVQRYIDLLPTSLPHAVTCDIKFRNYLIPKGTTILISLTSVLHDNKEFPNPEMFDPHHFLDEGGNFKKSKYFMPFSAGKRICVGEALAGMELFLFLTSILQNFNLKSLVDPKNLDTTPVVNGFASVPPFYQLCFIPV

[10] = Toxicity in male Sprague-Dawley rat assessed as change in bone marrow smears at 2.5 to 7.5 mg/kg, po administered once daily for 4 weeks and measured after 4 weeks; assay type: organism-based; conditions: in vivo, 1344 h, dose 2.5-7.5 mg/kg, time 8 weeks
[11] = target: Muscarinic acetylcholine receptor M2 (Homo sapiens) (UniProt P08172); experiment: Binding affinity to M2 receptor (unknown origin) at 10 uM by radioligand binding assay relative to control
Chain of Muscarinic acetylcholine receptor M2 (Homo sapiens) (P08172 whole entry): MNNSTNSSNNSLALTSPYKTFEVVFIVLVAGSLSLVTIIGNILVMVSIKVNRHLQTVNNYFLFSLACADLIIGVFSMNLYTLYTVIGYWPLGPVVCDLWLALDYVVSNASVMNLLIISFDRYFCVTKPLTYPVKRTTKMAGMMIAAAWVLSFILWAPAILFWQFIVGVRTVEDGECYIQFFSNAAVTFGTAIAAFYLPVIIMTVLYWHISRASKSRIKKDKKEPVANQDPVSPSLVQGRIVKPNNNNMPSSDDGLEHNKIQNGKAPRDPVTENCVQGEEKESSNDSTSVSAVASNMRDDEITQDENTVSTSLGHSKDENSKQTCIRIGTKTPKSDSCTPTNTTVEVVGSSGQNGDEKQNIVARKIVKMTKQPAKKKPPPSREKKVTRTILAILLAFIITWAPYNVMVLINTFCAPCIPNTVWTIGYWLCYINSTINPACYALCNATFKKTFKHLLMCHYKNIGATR

[12] = Toxicity in female Sprague-Dawley rat assessed as change in clinical chemistry at 2.5 to 7.5 mg/kg, po administered once daily for 4 weeks and measured after 4 weeks; assay type: organism-based; conditions: in vivo, 1344 h, dose 2.5-7.5 mg/kg, time 8 weeks
[13] = Toxicity in male Beagle dog assessed as change in clinical chemistry at 0.75 to 2.5 mg/kg, IG administered once daily for 4 weeks and measured after 4 weeks; assay type: organism-based, Canis lupus familiaris; conditions: in vivo, po, 1344 h, dose 0.75-2.5 mg/kg, time 8 weeks
[14] = Toxicity in female Beagle dog assessed as minimal decrease activity at 2.5 mg/kg, IG administered once daily for 4 weeks; assay type: organism-based, Canis lupus familiaris; conditions: in vivo, po, 672 h
[15] = Toxicity in female Beagle dog assessed as change in clinical chemistry at 0.75 to 2.5 mg/kg, IG administered once daily for 4 weeks and measured after 4 weeks; assay type: organism-based, Canis lupus familiaris; conditions: in vivo, po, 1344 h, dose 0.75-2.5 mg/kg, time 8 weeks
Cytochrome P450 3A4 = Cytochrome P450 3A4 (Homo sapiens, UniProt P08684); experiment: Inhibition of CYP3A4 in human liver microsomes in presence of NADPH by LC-MS/MS analysis; assay type: ADME, Microsome
Chain of Cytochrome P450 3A4 (P08684 whole entry): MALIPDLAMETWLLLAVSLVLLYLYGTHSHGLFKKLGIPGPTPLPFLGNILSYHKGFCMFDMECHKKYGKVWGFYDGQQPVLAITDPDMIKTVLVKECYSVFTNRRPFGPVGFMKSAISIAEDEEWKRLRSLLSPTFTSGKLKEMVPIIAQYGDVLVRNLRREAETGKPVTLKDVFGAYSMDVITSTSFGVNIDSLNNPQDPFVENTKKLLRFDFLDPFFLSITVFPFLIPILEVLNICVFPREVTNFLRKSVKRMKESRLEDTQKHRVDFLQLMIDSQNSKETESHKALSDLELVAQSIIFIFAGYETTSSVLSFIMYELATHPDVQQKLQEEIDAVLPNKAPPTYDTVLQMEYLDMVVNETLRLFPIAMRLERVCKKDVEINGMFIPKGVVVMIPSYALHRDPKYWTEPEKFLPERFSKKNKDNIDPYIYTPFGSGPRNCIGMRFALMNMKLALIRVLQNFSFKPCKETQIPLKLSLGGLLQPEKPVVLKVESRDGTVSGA

[16] = Toxicity in Sprague-Dawley rat assessed as stereotypy 2.5 to 7.5 mg/kg, po administered once daily for 4 weeks; assay type: organism-based; conditions: in vivo, 672 h, dose 2.5-7.5 mg/kg
[17] = Toxicity in male Beagle dog assessed as change in organ weight at 0.75 to 2.5 mg/kg, IG administered once daily for 4 weeks and measured after 4 weeks; assay type: organism-based, Canis lupus familiaris; conditions: in vivo, po, 1344 h, dose 0.75-2.5 mg/kg, time 8 weeks
D(2) dopamine receptor = D(2) dopamine receptor (Homo sapiens, UniProt P14416); experiment: Antagonist activity at human D2S receptor expressed in Flp-In-CHO cells; assay type: cell-based
Chain of D(2) dopamine receptor (P14416 whole entry): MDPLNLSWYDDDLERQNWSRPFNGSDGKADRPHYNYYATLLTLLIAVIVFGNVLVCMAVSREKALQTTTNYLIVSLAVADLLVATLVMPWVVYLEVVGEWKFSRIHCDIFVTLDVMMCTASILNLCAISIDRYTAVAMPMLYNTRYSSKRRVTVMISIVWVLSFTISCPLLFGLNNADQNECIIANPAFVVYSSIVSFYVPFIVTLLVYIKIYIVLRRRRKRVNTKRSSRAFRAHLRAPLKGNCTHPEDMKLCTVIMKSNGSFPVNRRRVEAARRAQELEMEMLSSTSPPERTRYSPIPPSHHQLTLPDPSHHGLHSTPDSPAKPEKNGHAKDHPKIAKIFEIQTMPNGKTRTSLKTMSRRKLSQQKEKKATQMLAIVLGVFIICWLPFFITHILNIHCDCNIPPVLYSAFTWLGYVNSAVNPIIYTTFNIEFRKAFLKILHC

[18] = Toxicity in male Beagle dog assessed as change in body temperature at 0.75 to 2.5 mg/kg, IG administered once daily for 4 weeks and measured after 4 weeks; assay type: organism-based, Canis lupus familiaris; conditions: in vivo, po, 1344 h, dose 0.75-2.5 mg/kg, time 8 weeks
[19] = Toxicity in female Sprague-Dawley rat assessed as suppression of food consumption at 7.5 mg/kg, po administered once daily for 4 weeks and measured weekly twice; assay type: organism-based; conditions: in vivo, 672 h
[20] = AUClast in male mouse at 10 mg/kg, IG measured after 24 hrs; assay type: ADME, organism-based; conditions: in vivo, po
[21] = Toxicity in female Sprague-Dawley rat assessed as minimal corneal neovascularization at 7.5 mg/kg, po administered once daily for 4 weeks; assay type: organism-based; conditions: in vivo, 672 h
Cytochrome P450 2B6 = Cytochrome P450 2B6 (Homo sapiens, UniProt P20813); experiment: Inhibition of CYP2B6 in human liver microsomes in presence of NADPH by LC-MS/MS analysis; assay type: ADME, Microsome
Chain of Cytochrome P450 2B6 (P20813 whole entry): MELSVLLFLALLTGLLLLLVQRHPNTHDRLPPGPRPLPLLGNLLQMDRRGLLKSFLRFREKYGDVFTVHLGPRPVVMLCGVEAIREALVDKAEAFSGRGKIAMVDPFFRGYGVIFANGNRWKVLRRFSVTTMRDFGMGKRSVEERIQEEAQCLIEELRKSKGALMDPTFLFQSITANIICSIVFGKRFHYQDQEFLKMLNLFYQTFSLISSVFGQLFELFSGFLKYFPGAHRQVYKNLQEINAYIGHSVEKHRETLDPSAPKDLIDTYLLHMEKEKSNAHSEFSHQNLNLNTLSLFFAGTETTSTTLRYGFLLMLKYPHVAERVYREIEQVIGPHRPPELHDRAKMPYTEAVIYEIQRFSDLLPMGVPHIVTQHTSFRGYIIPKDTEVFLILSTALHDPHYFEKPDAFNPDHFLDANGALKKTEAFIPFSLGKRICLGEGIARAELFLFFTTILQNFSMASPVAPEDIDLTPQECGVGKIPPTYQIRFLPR

[22] = Toxicity in male Beagle dog assessed as somnolence at 2.5 mg/kg, IG administered once daily for 4 weeks and measured after 4 weeks; assay type: organism-based, Canis lupus familiaris; conditions: in vivo, po, 1344 h, time 8 weeks
[23] = Toxicity in female Sprague-Dawley rat assessed as change in hematology at 2.5 to 7.5 mg/kg, po administered once daily for 4 weeks and measured after 4 weeks; assay type: organism-based; conditions: in vivo, 1344 h, dose 2.5-7.5 mg/kg, time 8 weeks
[24] = Toxicity in male Sprague-Dawley rat assessed as change in organ weight at 2.5 to 7.5 mg/kg, po administered once daily for 4 weeks and measured after 4 weeks; assay type: organism-based; conditions: in vivo, 1344 h, dose 2.5-7.5 mg/kg, time 8 weeks
[25] = Toxicity in male Beagle dog assessed as minimal decrease activity at 2.5 mg/kg, IG administered once daily for 4 weeks; assay type: organism-based, Canis lupus familiaris; conditions: in vivo, po, 672 h
[26] = Plasma protein binding in rat assessed as unbound fraction by LC-MS/MS analysis; assay type: ADME, cell-free
[27] = target: Beta-2 adrenergic receptor (Homo sapiens) (UniProt P07550); experiment: Binding affinity to beta 2 receptor (unknown origin) at 10 uM by radioligand binding assay relative to control
Chain of Beta-2 adrenergic receptor (Homo sapiens) (P07550 whole entry, looked up): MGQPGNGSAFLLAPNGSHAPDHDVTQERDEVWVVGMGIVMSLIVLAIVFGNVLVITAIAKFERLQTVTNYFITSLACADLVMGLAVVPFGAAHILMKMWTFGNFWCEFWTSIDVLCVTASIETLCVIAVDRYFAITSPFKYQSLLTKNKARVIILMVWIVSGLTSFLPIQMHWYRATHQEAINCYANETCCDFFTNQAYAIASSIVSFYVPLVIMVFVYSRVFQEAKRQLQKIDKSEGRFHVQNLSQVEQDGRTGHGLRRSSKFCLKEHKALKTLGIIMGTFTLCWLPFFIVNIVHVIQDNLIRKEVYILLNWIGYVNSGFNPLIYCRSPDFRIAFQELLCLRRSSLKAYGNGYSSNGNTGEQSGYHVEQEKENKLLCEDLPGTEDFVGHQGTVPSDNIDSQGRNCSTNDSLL

[28] = Toxicity in male Sprague-Dawley rat assessed as suppression of body weight gain at 7.5 mg/kg, po administered once daily for 4 weeks and measured after 4 weeks; assay type: organism-based; conditions: in vivo, 1344 h, time 8 weeks
[29] = target: Kappa-type opioid receptor (Homo sapiens) (UniProt P41145); experiment: Binding affinity to op-kappa receptor (unknown origin) at 10 uM by radioligand binding assay relative to control
[30] = Toxicity in Sprague-Dawley rat assessed as normal spontaneous movement at 2.5 to 7.5 mg/kg, po administered once daily for 4 weeks; assay type: organism-based; conditions: in vivo, 672 h, dose 2.5-7.5 mg/kg
[31] = Toxicity in male Sprague-Dawley rat assessed as change in blood glucose level at 2.5 to 7.5 mg/kg, po administered once daily for 4 weeks and measured after 4 weeks; assay type: organism-based; conditions: in vivo, 1344 h, dose 2.5-7.5 mg/kg, time 8 weeks
[32] = Cardiotoxicity in conscious cynomolgus monkey assessed as normal spontaneous movement at 3.125 to 12.5 mg/kg, IG; assay type: toxicity, organism-based, Macaca fascicularis; conditions: in vivo, po, dose 3.125-12.5 mg/kg
[33] = Toxicity in female Sprague-Dawley rat assessed as irritability at 2.5 mg/kg, po administered once daily for 4 weeks and measured after 4 weeks; assay type: organism-based; conditions: in vivo, 1344 h, time 8 weeks
[34] = target: Trace amine-associated receptor 1 (Rattus norvegicus) (UniProt Q923Y9); experiment: Agonist activity at rat TAAR1 by measuring maximum efficacy relative to control; assay type: functional; conditions: filed as agonist
Chain of Trace amine-associated receptor 1 (Rattus norvegicus) (Q923Y9 whole entry): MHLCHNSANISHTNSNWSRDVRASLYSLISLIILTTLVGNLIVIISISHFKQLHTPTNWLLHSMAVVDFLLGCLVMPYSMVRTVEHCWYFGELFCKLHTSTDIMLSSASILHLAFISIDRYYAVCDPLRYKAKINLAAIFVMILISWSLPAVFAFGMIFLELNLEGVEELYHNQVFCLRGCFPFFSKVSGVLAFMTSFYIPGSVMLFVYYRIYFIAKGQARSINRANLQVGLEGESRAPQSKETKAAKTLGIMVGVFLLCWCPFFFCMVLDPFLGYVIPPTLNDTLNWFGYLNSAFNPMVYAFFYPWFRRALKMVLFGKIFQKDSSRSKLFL

[35] = Toxicity in male Beagle dog assessed as change in food consumption at 0.75 to 2.5 mg/kg, IG administered once daily for 4 weeks and measured after 4 weeks; assay type: organism-based, Canis lupus familiaris; conditions: in vivo, po, 1344 h, dose 0.75-2.5 mg/kg, time 8 weeks

Structure (SMILES): c1cc2c(s1)[C@@H]1CNCCN1CC2
- Activity [1]: 23.8%
- EC50 [2]: 0.0702 µM
- Activity [3]: Non-toxic
- CLint scaled at 1 µM [4]: < 29.7 mL/min/kg
- Kp at 6 h [5]: 4.22
- IC50 [6]: > 50 µM
- Activity [7]: 45.9%
- Activity [8]: 26.5%
- Activity [9]: Non-toxic
- IC50 (Cytochrome P450 2C9): > 50 µM
- Activity [10]: Non-toxic
- Activity [11]: 28.9%
- Activity [12]: Non-toxic
- Activity [13]: Non-toxic
- Activity [14]: Toxic
- Activity [15]: Non-toxic
- IC50 (Cytochrome P450 3A4): > 50 µM
- Activity [16]: Non-toxic
- Activity [17]: Non-toxic
- IC50 (D(2) dopamine receptor): > 100 µM
- Activity [18]: Non-toxic
- Activity [19]: Toxic
- AUC(0-t) at 24 h [20]: 21.6 µM·h
- Activity [21]: Toxic
- IC50 (Cytochrome P450 2B6): > 50 µM
- Activity [22]: Non-toxic
- Activity [23]: Non-toxic
- Activity [24]: Non-toxic
- Activity [25]: Toxic
- fraction unbound [26]: 0.759
- Activity [27]: -12.2%
- Activity [28]: Toxic
- Activity [29]: 4.07%
- Activity [30]: Non-toxic
- Activity [31]: Non-toxic
- Activity [32]: Non-toxic
- Activity [33]: Non-toxic
- Emax [34]: 99.5%
- Activity [35]: Non-toxic
